The kinase profiling compilation of Christmann-Franck et al. (2016)

Tests used:
Assay in all cases: KINOMEscan competition binding
Details in all cases: compound 0.5 µM
AURKC (human) = AURKC (human) (UniProt Q9UQB9)
CAMK1G (human) = CAMK1G (human) (UniProt Q96NX5)
CAMK2A (human) = CAMK2A (human) (UniProt Q9UQM7)
CDK2 (human) = CDK2 (human) (UniProt P24941)
CDK4 CCND1 (human) = CDK4 CCND1 (human) (UniProt P11802+P24385)
CDKL3 (human) = CDKL3 (human) (UniProt Q8IVW4)
CLK1 (human) = CLK1 (human) (UniProt P49759)
CLK3 (human) = CLK3 (human) (UniProt P49761)
CLK4 (human) = CLK4 (human) (UniProt Q9HAZ1)
CSF1R (human) = CSF1R (human) (UniProt P07333)
DAPK2 (human) = DAPK2 (human) (UniProt Q9UIK4)
DYRK1A (human) = DYRK1A (human) (UniProt Q13627)
FLT3 (human) = FLT3 (human) (UniProt P36888)
GRK1 (human) = GRK1 (human) (UniProt Q15835)
GRK7 (human) = GRK7 (human) (UniProt Q8WTQ7)
GSK3B (human) = GSK3B (human) (UniProt P49841)
HIPK2 (human) = HIPK2 (human) (UniProt Q9H2X6)
ITK (human) = ITK (human) (UniProt Q08881)
KIT (human) = KIT (human) (UniProt P10721)
MAP2K3 (human) = MAP2K3 (human) (UniProt P46734)
MAP2K5 (human) = MAP2K5 (human) (UniProt Q13163)
MAP2K6 (human) = MAP2K6 (human) (UniProt P52564)
MAP3K13 (human) = MAP3K13 (human) (UniProt O43283)
MAP3K5 (human) = MAP3K5 (human) (UniProt Q99683)
MAP3K6 (human) = MAP3K6 (human) (UniProt O95382)
MAPK12 (human) = MAPK12 (human) (UniProt P53778)
NEK5 (human) = NEK5 (human) (UniProt Q6P3R8)
NIM1 (human) = NIM1 (human) (UniProt Q8IY84)
PAK1 (human) = PAK1 (human) (UniProt Q13153)
PIP4K2B (human) = PIP4K2B (human) (UniProt P78356)
PRKCD (human) = PRKCD (human) (UniProt Q05655)
PRKX (human) = PRKX (human) (UniProt P51817)
RIPK1 (human) = RIPK1 (human) (UniProt Q13546)
RIPK4 (human) = RIPK4 (human) (UniProt P57078)
RPS6KA2 KD2 (human) = RPS6KA2 KD2 (human) (UniProt Q15349)
SRPK2 (human) = SRPK2 (human) (UniProt P78362)
STK16 (human) = STK16 (human) (UniProt O75716)
TEC (human) = TEC (human) (UniProt P42680)
TESK1 (human) = TESK1 (human) (UniProt Q15569)
TNK1 (human) = TNK1 (human) (UniProt Q13470)
TSSK1B (human) = TSSK1B (human) (UniProt Q9BXA7)
ULK3 (human) = ULK3 (human) (UniProt Q6PHR2)
Chain of ULK3 (human) (Q6PHR2 whole entry, looked up): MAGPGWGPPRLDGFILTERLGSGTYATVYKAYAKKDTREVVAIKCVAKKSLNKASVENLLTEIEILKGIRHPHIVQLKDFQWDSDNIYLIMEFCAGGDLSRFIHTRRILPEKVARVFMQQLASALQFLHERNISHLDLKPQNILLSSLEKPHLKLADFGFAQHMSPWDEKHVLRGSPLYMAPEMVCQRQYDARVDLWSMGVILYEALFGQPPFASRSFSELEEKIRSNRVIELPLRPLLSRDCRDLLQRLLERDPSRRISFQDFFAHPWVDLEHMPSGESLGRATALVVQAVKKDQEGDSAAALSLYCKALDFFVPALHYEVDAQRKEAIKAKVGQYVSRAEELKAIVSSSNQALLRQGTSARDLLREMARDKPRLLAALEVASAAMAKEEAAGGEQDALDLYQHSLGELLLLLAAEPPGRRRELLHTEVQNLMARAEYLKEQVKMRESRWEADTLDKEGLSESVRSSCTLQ

Chain of CSF1R (human) (P07333 whole entry, looked up): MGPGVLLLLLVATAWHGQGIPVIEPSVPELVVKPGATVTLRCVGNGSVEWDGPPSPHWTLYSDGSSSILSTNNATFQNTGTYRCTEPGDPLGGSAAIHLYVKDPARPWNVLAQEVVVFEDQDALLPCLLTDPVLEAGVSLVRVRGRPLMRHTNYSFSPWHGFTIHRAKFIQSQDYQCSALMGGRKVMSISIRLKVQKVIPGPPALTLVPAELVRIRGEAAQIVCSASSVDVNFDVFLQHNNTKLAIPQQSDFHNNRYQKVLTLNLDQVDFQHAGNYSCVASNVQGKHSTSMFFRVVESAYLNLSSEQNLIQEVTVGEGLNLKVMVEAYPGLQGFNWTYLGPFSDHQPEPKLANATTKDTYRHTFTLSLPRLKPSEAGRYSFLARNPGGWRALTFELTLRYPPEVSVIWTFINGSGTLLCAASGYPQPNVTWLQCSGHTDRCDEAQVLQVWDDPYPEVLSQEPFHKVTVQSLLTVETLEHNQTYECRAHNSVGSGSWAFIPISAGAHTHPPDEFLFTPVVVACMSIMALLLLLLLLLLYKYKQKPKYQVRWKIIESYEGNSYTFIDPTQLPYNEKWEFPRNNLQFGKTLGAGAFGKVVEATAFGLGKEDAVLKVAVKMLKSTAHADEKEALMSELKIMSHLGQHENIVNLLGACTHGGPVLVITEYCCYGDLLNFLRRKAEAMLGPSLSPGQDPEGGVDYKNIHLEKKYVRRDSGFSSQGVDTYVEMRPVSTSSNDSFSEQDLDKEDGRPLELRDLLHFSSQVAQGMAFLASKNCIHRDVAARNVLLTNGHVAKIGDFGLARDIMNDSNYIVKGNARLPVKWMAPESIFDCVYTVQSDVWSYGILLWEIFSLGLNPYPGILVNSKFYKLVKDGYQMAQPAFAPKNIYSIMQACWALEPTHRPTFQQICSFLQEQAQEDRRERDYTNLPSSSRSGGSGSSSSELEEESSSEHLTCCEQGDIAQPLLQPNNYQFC
Chain of RIPK1 (human) (Q13546 whole entry, looked up): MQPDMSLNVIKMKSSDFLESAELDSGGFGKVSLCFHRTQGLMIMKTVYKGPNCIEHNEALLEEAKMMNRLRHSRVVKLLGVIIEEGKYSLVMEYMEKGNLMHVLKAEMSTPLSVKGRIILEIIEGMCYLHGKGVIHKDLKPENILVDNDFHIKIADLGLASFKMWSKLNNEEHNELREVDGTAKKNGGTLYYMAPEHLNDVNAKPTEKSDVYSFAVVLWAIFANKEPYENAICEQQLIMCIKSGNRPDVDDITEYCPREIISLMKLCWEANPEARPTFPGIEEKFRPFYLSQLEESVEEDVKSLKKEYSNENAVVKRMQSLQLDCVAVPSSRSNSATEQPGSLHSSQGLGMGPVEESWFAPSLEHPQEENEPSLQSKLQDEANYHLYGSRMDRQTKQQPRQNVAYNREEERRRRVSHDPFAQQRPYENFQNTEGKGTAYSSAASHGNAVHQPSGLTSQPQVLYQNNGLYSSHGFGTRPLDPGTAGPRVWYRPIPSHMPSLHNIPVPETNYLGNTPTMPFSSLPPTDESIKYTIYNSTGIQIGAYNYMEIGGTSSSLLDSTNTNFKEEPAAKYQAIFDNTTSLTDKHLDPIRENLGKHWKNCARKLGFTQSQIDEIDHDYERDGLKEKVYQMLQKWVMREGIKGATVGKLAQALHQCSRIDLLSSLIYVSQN
Chain of TNK1 (human) (Q13470 whole entry, looked up): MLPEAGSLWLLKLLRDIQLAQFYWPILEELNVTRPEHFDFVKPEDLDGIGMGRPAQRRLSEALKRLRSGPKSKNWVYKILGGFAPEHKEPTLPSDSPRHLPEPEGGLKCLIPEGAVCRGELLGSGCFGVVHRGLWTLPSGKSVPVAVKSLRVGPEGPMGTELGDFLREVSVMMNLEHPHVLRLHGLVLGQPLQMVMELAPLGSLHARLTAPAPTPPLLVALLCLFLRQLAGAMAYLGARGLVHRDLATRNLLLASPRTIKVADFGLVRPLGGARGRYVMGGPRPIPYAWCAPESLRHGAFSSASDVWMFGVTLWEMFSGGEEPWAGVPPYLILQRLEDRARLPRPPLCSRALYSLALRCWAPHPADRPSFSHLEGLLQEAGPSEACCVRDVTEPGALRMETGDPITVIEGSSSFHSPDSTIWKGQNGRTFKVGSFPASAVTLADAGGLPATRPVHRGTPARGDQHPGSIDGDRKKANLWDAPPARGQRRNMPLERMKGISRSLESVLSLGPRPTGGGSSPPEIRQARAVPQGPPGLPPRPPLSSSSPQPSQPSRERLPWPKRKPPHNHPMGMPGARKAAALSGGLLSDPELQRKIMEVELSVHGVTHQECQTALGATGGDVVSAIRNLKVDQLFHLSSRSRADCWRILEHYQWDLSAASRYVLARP
Chain of CAMK2A (human) (Q9UQM7 whole entry, looked up): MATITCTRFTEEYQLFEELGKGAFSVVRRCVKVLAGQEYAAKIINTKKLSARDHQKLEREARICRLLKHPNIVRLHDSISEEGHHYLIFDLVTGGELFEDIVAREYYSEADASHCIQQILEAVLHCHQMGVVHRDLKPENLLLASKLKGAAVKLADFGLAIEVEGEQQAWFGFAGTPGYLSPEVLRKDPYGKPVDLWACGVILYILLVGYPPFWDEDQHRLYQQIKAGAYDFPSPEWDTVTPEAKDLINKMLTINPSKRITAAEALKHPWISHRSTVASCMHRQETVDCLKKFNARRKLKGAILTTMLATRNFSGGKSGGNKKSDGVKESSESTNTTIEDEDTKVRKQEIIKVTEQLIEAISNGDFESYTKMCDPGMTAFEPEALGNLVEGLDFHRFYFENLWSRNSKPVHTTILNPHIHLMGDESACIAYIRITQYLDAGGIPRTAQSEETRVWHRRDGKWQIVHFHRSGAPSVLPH
Chain of CLK3 (human) (P49761 whole entry, looked up): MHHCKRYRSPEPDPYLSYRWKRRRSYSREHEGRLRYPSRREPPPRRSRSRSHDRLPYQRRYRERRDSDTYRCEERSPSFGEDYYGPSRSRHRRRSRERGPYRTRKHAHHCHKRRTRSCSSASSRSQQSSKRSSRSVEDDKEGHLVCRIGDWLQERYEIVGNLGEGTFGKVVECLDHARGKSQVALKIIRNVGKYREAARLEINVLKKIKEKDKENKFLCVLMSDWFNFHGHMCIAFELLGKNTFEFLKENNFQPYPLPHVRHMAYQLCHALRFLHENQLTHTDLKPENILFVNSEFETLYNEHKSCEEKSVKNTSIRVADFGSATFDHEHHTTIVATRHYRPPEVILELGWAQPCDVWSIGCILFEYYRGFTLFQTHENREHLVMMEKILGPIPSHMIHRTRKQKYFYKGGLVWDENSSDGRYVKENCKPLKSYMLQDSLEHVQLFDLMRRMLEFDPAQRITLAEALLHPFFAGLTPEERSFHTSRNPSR
Chain of MAP2K5 (human) (Q13163 whole entry, looked up): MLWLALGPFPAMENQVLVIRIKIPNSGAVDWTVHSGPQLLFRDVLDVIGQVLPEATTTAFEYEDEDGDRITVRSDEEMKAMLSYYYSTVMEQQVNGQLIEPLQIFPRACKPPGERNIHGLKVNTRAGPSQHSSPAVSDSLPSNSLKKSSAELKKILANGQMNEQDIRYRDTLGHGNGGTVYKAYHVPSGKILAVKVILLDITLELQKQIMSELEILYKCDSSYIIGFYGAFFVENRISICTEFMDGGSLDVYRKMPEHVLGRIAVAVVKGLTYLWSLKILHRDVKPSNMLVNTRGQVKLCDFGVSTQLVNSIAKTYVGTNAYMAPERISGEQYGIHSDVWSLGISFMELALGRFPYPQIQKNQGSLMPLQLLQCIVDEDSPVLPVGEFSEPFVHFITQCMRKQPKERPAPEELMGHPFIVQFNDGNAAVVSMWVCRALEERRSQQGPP
Chain of CLK4 (human) (Q9HAZ1 whole entry, looked up): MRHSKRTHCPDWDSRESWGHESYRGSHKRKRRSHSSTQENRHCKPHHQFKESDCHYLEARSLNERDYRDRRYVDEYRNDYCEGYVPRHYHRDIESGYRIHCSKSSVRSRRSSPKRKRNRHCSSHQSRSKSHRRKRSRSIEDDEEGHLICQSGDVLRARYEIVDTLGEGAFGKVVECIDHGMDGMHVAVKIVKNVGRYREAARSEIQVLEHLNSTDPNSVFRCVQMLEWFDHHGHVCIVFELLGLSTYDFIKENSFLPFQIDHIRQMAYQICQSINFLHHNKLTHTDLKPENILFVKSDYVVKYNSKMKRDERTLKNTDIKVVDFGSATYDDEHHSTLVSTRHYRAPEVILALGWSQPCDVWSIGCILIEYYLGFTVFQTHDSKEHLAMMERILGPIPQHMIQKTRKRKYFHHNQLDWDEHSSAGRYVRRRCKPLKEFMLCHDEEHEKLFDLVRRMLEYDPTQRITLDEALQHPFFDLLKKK
Chain of MAP2K3 (human) (P46734 whole entry, looked up): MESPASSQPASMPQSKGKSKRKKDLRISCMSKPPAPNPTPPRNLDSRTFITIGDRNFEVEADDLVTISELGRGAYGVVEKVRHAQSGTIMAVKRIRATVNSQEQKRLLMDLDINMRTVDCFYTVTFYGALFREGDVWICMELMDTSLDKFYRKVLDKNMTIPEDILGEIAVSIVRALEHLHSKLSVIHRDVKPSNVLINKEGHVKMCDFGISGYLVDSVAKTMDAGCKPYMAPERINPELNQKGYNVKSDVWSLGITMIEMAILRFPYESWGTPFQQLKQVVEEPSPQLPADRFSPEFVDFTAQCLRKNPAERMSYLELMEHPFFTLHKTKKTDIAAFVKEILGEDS

Cn1c2ccccc2c2c3c(c4c5ccccc5n(CCC#N)c4c21)CNC3=O
kinase still bound, per cent of control (AURKC (human)): 8% | kinase still bound, per cent of control (CAMK1G (human)): 66% | kinase still bound, per cent of control (CAMK2A (human)): 27% | kinase still bound, per cent of control (CDK2 (human)): 36% | kinase still bound, per cent of control (CDK4 CCND1 (human)): 57% | kinase still bound, per cent of control (CDKL3 (human)): 91% | kinase still bound, per cent of control (CLK1 (human)): 16% | kinase still bound, per cent of control (CLK3 (human)): 94% | kinase still bound, per cent of control (CLK4 (human)): 6.1% | kinase still bound, per cent of control (CSF1R (human)): 37% | kinase still bound, per cent of control (DAPK2 (human)): 61% | kinase still bound, per cent of control (DYRK1A (human)): 6.4% | kinase still bound, per cent of control (FLT3 (human)): 1.4% | kinase still bound, per cent of control (GRK1 (human)): 15% | kinase still bound, per cent of control (GRK7 (human)): 10% | kinase still bound, per cent of control (GSK3B (human)): 81% | kinase still bound, per cent of control (HIPK2 (human)): 15% | kinase still bound, per cent of control (ITK (human)): 40% | kinase still bound, per cent of control (KIT (human)): 81% | kinase still bound, per cent of control (MAP2K3 (human)): 5% | kinase still bound, per cent of control (MAP2K5 (human)): 58% | kinase still bound, per cent of control (MAP2K6 (human)): 15% | kinase still bound, per cent of control (MAP3K13 (human)): 33% | kinase still bound, per cent of control (MAP3K5 (human)): 56% | kinase still bound, per cent of control (MAP3K6 (human)): 62% | kinase still bound, per cent of control (MAPK12 (human)): 68% | kinase still bound, per cent of control (NEK5 (human)): 100% | kinase still bound, per cent of control (NIM1 (human)): 100% | kinase still bound, per cent of control (PAK1 (human)): 84% | kinase still bound, per cent of control (PIP4K2B (human)): 2% | kinase still bound, per cent of control (PRKCD (human)): 43% | kinase still bound, per cent of control (PRKX (human)): 53% | kinase still bound, per cent of control (RIPK1 (human)): 100% | kinase still bound, per cent of control (RIPK4 (human)): 5.2% | kinase still bound, per cent of control (RPS6KA2 KD2 (human)): 100% | kinase still bound, per cent of control (SRPK2 (human)): 9.2% | kinase still bound, per cent of control (STK16 (human)): 84% | kinase still bound, per cent of control (TEC (human)): 92% | kinase still bound, per cent of control (TESK1 (human)): 43% | kinase still bound, per cent of control (TNK1 (human)): 2% | kinase still bound, per cent of control (TSSK1B (human)): 82% | kinase still bound, per cent of control (ULK3 (human)): 15%
